Literature values in patent US20230165838A1, “TREATMENT FOR ACUTE RESPIRATORY DISTRESS SYNDROME” (DIMERIX BIOSCIENCE LTD., priority 2020, published 2023).

System: monocytes
Settings: MCP-1 induced; mechanism seems to require GPI-anchored proteins such as CD55, CD59 and CD16 (Yokochi, S. 2001)

O=C(O)C[CH2][Ge](=[O])[O][Ge](=[O])[CH2]CC(=O)O [Propagermanium, 3-[(2-Carboxyethyl-oxogermyl)oxy-oxogermyl]propanoic acid]
in vitro chemotactic migration of monocytes by MCP-1: specifically inhibit
